Where only a bound is given, the exact number is not on record here.

The target in the first assay is GST-Bcl-2 (Homo sapiens (Human), UniProt P10415). The assay is described as follows: Time Resolved-Fluorescence Resonance Energy Transfer (TR-FRET) Bcl-2 binding assay.
GST-Bcl-2, sequence (P10415 whole entry): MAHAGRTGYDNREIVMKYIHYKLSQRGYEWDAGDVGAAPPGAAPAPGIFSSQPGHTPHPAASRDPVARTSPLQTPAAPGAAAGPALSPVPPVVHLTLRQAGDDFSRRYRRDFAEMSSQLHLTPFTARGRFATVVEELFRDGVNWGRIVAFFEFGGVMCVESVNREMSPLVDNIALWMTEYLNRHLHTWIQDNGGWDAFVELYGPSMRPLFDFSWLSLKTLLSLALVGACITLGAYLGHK
Settings: not given
The essentials:
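Competition TR-FRET: GST-Bcl-2 with fluorescent Bak peptide probe and Tb-anti-GST antibody, compounds serially diluted from 50 μM (2× start, 10% DMSO).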
(In TR-FRET formats the signal depends on donor and acceptor labels being close together.)
In turn, `CN1CCC(Nc2ccc(S(=O)(=O)NC(=O)c3ccc(N4CCN(CC5=C(c6ccc(Cl)cc6)CC(C)(C)CC5)CC4)cc3Oc3cc4cc[nH]c4cc3C(F)(F)F)cc2[N+](=O)[O-])CC1` [Example 217, 4-(4-{[2-(4-chlorophenyl)-4,4-dimethylcyclohex-1-en-1-yl]methyl)piperazin-1-yl)-N-((4-[(1-methylpiperidin-4-yl)amino]-3-nitrophenyl}sulfonyl)-2-{[6-(trifluoromethyl)-1H-indol-5-yl]oxy}benzamide] returned an inhibition constant (Ki) of 0.174 nM.

`CC1(C)CCC(CN2CCN(c3ccc(C(=O)NS(=O)(=O)c4ccc(N[C@H]5CC[C@H](NC6CCOCC6)CC5)c([N+](=O)[O-])c4)c(Oc4cc5cc[nH]c5cc4F)c3)CC2)=C(c2ccc(Cl)cc2)C1` [Example 335, Trans-4-(4-{[2-(4-chlorophenyl)-4,4-dimethylcyclohex-1-en-1-yl]methyl}piperazin-1-yl)-2-[(6-fluoro-1H-indol-5-yl)oxy]-N-[(3-nitro-4-{[4-(tetrahydro-2H-pyran-4-ylamino)cyclohexyl]amino}phenyl)sulfonyl]benzamide]: the Ki was under 0.01 nM.

The same assay, now with this note: GST-Bcl-2 1 nM, F-Bak peptide probe 100 nM, Tb-anti-GST antibody 1 nM; Ki by Wang's equation.
Consider `CN1CCC(Nc2ccc(S(=O)(=O)NC(=O)c3ccc(N4CCN(CC5=C(c6ccc(Cl)cc6)CC(C)(C)CC5)CC4)cc3Oc3ccc(N)c(Cl)c3)cc2[N+](=O)[O-])CC1` [Example 40, 2-(4-amino-3-chlorophenoxy)-4-(4-((2-(4-chlorophenyl)-4,4-dimethylcyclohex-1-en-1-yl)methyl)piperazin-1-yl)-N-((4-((1-methylpiperidin-4-yl)amino)-3-nitrophenyl)sulfonyl)benzamide], for which the Ki worked out at 0.019 nM.

Consider `CC1(C)CCC(CN2CCN(c3ccc(C(=O)NS(=O)(=O)c4ccc(N[C@@H]5CCN(C(CF)CF)C5)c([N+](=O)[O-])c4)c(Oc4cc5cc[nH]c5cc4F)c3)CC2)=C(c2ccc(Cl)cc2)C1` [Example 357, 4-(4-{[2-(4-chlorophenyl)-4,4-dimethylcyclohex-1-en-1-yl]methyl}piperazin-1-yl)-N-{[4-({(3R)-1-[2-fluoro-1-(fluoromethyl)ethyl]pyrrolidin-3-yl}amino)-3-nitrophenyl]sulfonyl}-2-[(6-fluoro-1H-indol-5-yl)oxy]benzamide], for which affinity was put at a Ki of 0.177 nM.

`CN1CCN(Nc2ccc(S(=O)(=O)NC(=O)c3ccc(N4CCN(CC5=C(c6ccc(Cl)cc6)CC(C)(C)OC5)CC4)cc3Oc3cccc(F)c3F)cc2[N+](=O)[O-])CC1` [Example 186, 4-(4-{[4-(4-chlorophenyl)-6,6-dimethyl-5,6-dihydro-2H-pyran-3-yl]methyl}piperazin-1-yl)-2-(2,3-difluorophenoxy)-N-({4-[(4-methylpiperazin-1-yl)amino]-3-nitrophenyl}sulfonyl)benzamide] had a Ki of 0.035 nM.

In turn, `CN(C)CCCc1ccccc1Oc1cc(N2CCN(Cc3ccccc3-c3ccc(Cl)cc3)CC2)ccc1C(=O)NS(=O)(=O)c1ccc(NCC2CCOCC2)c([N+](=O)[O-])c1` [Example 28, 4-(4-((4′-chloro-1,1′-biphenyl-2-yl)methyl)piperazin-1-yl)-2-(2-(3-(dimethylamino)propyl)phenoxy)-N-((3-nitro-4-((tetrahydro-2H-pyran-4-ylmethyl)amino)phenyl)sulfonyl)benzamide] registered a Ki of 1.33 nM.

In the case of `CN1CCC(Nc2ccc(S(=O)(=O)NC(=O)c3ccc(N4CCN(CC5=C(c6ccc(Cl)cc6)CC(C)(C)CC5)CC4)cc3Oc3cccc(F)c3F)cc2[N+](=O)[O-])CC1` [Example 45, 4-(4-((2-(4-chlorophenyl)-4,4-dimethylcyclohex-1-en-1-yl)methyl)piperazin-1-yl)-2-(2,3-difluorophenoxy)-N-((4-((1-methylpiperidin-4-yl)amino)-3-nitrophenyl)sulfonyl)benzamide], the Ki came to 0.047 nM.

As for `CN1CCC(Nc2ccc(S(=O)(=O)NC(=O)c3ccc(N4CCN(CC5=C(c6ccc(Cl)cc6)CC(C)(C)CC5)CC4)cc3Oc3cccc(Cl)c3F)cc2[N+](=O)[O-])CC1` [Example 147, 2-(3-chloro-2-fluorophenoxy)-4-(4-{[2-(4-chlorophenyl)-4,4-dimethylcyclohex-1-en-1-yl]methyl}piperazin-1-yl)-N-({4-[(1-methylpiperidin-4-yl)amino]-3-nitrophenyl}sulfonyl)benzamide], affinity was put at a Ki of 0.127 nM.

Take `O=C(NS(=O)(=O)c1ccc(NCC2CCOCC2)c([N+](=O)[O-])c1)c1ccc(N2CCN(Cc3ccccc3-c3ccc(Cl)cc3)CC2)cc1Oc1cccc([N+](=O)[O-])c1` [Example 8, 4-(4-((4′-chloro-1,1′-biphenyl-2-yl)methyl)piperazin-1-yl)-2-(3-nitrophenoxy)-N-((3-nitro-4-((tetrahydro-2H-pyran-4-ylmethyl)amino)phenyl)sulfonyl)benzamide]: the Ki is 3.45 nM.

Consider `CN1CCC(Nc2ccc(S(=O)(=O)NC(=O)c3ccc(N4CCN(CC5=C(c6ccc(Cl)cc6)CC(C)(C)OC5)CC4)cc3Oc3cccc(F)c3F)cc2[N+](=O)[O-])CC1` [Example 145, 4-(4-{[4-(4-chlorophenyl)-6,6-dimethyl-5,6-dihydro-2H-pyran-3-yl]methyl}piperazin-1-yl)-2-(2,3-difluorophenoxy)-N-({4-[(1-methylpiperidin-4-yl)amino]-3-nitrophenyl}sulfonyl)benzamide], for which the Ki worked out at 0.057 nM.

The compound `CC1(C)CCC(CN2CCN(c3ccc(C(=O)NS(=O)(=O)c4ccc(NC5CCN(C6CCOCC6)CC5)c([N+](=O)[O-])c4)c(Oc4ccc(O)cc4Cl)c3)CC2)=C(c2ccc(Cl)cc2)C1` [Example 216, 2-(2-chloro-4-hydroxyphenoxy)-4-(4-{[2-(4-chlorophenyl)-4,4-dimethylcyclohex-1-en-1-yl]methyl}piperazin-1-yl)-N-({3-nitro-4-[(1-tetrahydro-2H-pyran-4-ylpiperidin-4-yl)amino]phenyl}sulfonyl)benzamide] registered a Ki of 0.027 nM.

In turn, `CC1(C)CCC(CN2CCN(c3ccc(C(=O)NS(=O)(=O)c4ccc(NC[C@H]5CCCOC5)c([N+](=O)[O-])c4)c(Oc4cc5cc[nH]c5cc4F)c3)CC2)=C(c2ccc(Cl)cc2)C1` [Example 259, 4-(4-{[2-(4-chlorophenyl)-4,4-dimethylcyclohex-1-en-1-yl]methyl}piperazin-1-yl)-2-[(6-fluoro-1H-indol-5-yl)oxy]-N-[(3-nitro-4-{[(3R)-tetrahydro-2H-pyran-3-ylmethyl]amino}phenyl)sulfonyl]benzamide] came in with a Ki of 0.165 nM.

On to `Cc1nc2cc(Oc3cc(N4CCN(Cc5ccccc5-c5ccc(Cl)cc5)CC4)ccc3C(=O)NS(=O)(=O)c3ccc(NCCCN4CCOCC4)c([N+](=O)[O-])c3)ccc2s1` [Example 24, 4-(4-((4′-chloro-1,1′-biphenyl-2-yl)methyl)piperazin-1-yl)-2-((2-methyl-1,3-benzothiazol-5-yl)oxy)-N-((4-((3-morpholin-4-ylpropyl)amino)-3-nitrophenyl)sulfonyl)benzamide], for which the Ki is 15 nM.

In the case of `CC1(C)CCC(CN2CCN(c3ccc(C(=O)NS(=O)(=O)c4ccc(NC5CCN(C6CC6)CC5)c([N+](=O)[O-])c4)c(Oc4cnc(N)c(Cl)c4)c3)CC2)=C(c2ccc(Cl)cc2)C1` [Example 358, 2-[(6-amino-5-chloropyridin-3-yl)oxy]-4-(4-{[2-(4-chlorophenyl)-4,4-dimethylcyclohex-1-en-1-yl]methyl}piperazin-1-yl)-N-({4-[(1-cyclopropylpiperidin-4-yl)amino]-3-nitrophenyl}sulfonyl)benzamide], the Ki was determined as 0.062 nM.

Turning to `CC1(C)CCC(CN2CCN(c3ccc(C(=O)NS(=O)(=O)c4cnc(OCC5CCOCC5)c(Cl)c4)c(Oc4cc5cc[nH]c5cc4F)c3)CC2)=C(c2ccc(Cl)cc2)C1` [Example 303, 4-(4-{[2-(4-chlorophenyl)-4,4-dimethylcyclohex-1-en-1-yl]methyl}piperazin-1-yl)-N-{[5-chloro-6-(tetrahydro-2H-pyran-4-ylmethoxy)pyridin-3-yl]sulfonyl}-2-[(6-fluoro-1H-indol-5-yl)oxy]benzamide], the Ki came to 0.092 nM.

`CCN1CCC(Nc2ccc(S(=O)(=O)NC(=O)c3ccc(N4CCN(CC5=C(c6ccc(Cl)cc6)CC(C)(C)CC5)CC4)cc3Oc3cccc(Cl)c3)cc2[N+](=O)[O-])CC1` [Example 174, 2-(3-chlorophenoxy)-4-(4-{[2-(4-chlorophenyl)-4,4-dimethylcyclohex-1-en-1-yl]methyl}piperazin-1-yl)-N-({4-[(1-ethylpiperidin-4-yl)amino]-3-nitrophenyl}sulfonyl)benzamide] displayed a Ki of 0.037 nM.

For the compound `CC1(C)CCC(CN2CCN(c3ccc(C(=O)NS(=O)(=O)c4ccc(OCC5(F)CCN(C6CC6)CC5)c([N+](=O)[O-])c4)c(Oc4cc5cc[nH]c5cc4F)c3)CC2)=C(c2ccc(Cl)cc2)C1` [Example 341, 4-(4-{[2-(4-chlorophenyl)-4,4-dimethylcyclohex-1-en-1-yl]methyl}piperazin-1-yl)-N-({4-[(1-cyclopropyl-4-fluoropiperidin-4-yl)methoxy]-3-nitrophenyl}sulfonyl)-2-[(6-fluoro-1H-indol-5-yl)oxy]benzamide], the Ki came out at 0.017 nM.

As for `CC1(C)CCC(CN2CCN(c3ccc(C(=O)NS(=O)(=O)c4ccc(NC5CCN(C6CCCC6)CC5)c([N+](=O)[O-])c4)c(Oc4cccc(Cl)c4)c3)CC2)=C(c2ccc(Cl)cc2)C1` [Example 130, 2-(3-chlorophenoxy)-4-(4-{[2-(4-chlorophenyl)-4,4-dimethylcyclohex-1-en-1-yl]methyl}piperazin-1-yl)-N-({4-[(1-cyclopentylpiperidin-4-yl)amino]-3-nitrophenyl}sulfonyl)benzamide], the affinity corresponds to a Ki of 0.067 nM.

As for `CN(C)CCCNc1ccc(S(=O)(=O)NC(=O)c2ccc(N3CCN(CC4=C(c5ccc(Cl)cc5)CC(C)(C)CC4)CC3)cc2Oc2ccccc2F)cc1[N+](=O)[O-]` [Example 137, 4-(4-{[2-(4-chlorophenyl)-4,4-dimethylcyclohex-1-en-1-yl]methyl}piperazin-1-yl)-N-[(4-{[3-(dimethylamino)propyl]amino}-3-nitrophenyl)sulfonyl]-2-(2-fluorophenoxy)benzamide], the affinity, expressed as Ki, was 0.021 nM.

Usually Ki stands for the equilibrium dissociation constant of an inhibitor or competing ligand from its target. Read a high Ki as weaker binding.

The values are drawn from patent US8952157B2, “Apoptosis-inducing agents for the treatment of cancer and immune and autoimmune diseases” (AbbVie Inc., priority 2008, dated 2015).
